Experimental data taken from US10131652B2, “Pyrimidinyloxy benzene derivatives as herbicides” (E. I. DU PONT DE NEMOURS AND COMPANY, priority 2014, dated 2018).

Legend:
Assay type in all cases: in vivo
[1] = system: wheat (Triticum aestivum); test: Test B pre-/postemergence plant response
Summary of the method: (§1)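 Greenhouse pots, loam/sand soil; compound formulated with surfactant in non-phytotoxic solvent. Preemergence soil spray and postemergence spray at 1–2 leaf stage run simultaneously. Visual injury, 0–100, about 10 days post-treatment.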

[2] = system: ragweed (common ragweed, Ambrosia elatior); test: Test B pre-/postemergence plant response
Summary of the method: as §1

[3] = system: pigweed (Amaranthus retroflexus); test: Test B pre-/postemergence plant response
Summary of the method: as §1

[4] = system: Italian ryegrass (Lolium multiflorum); test: Test B pre-/postemergence plant response
Summary of the method: as §1

[5] = system: barnyardgrass (Echinochloa crus-galli); test: Test B pre-/postemergence plant response
Summary of the method: as §1

[6] = system: kochia (Kochia scoparia); test: Test B pre-/postemergence plant response
Summary of the method: as §1

[7] = system: giant foxtail (Setaria faberii); test: Test B pre-/postemergence plant response
Summary of the method: as §1

[8] = system: corn (Zea mays); test: Test B pre-/postemergence plant response
Summary of the method: as §1

[9] = system: blackgrass (Alopecurus myosuroides); test: Test B postemergence plant response
Summary of the method: (§2)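 Injury was assessed visually about 10 days after treatment, scored from 0 (no effect) to 100 (complete control) by comparison with untreated controls. Test chemicals had been applied postemergence to potted plants at the one- to two-leaf stage, grown in loam soil and sand in a greenhouse.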

[10] = system: galium (catchweed bedstraw, Galium aparine); test: Test B postemergence plant response
Summary of the method: as §2

[11] = system: rice (Oryza sativa); test: Test C flooded paddy test plant response; details: Flood, 250 g ai/ha; scale of 0 to 100 where 0 is no effect and 100 is complete control; 13 to 15 days
Summary of the method: (§3)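 2-leaf plants; flood 3 cm, cpd into paddy water; greenhouse 13–15 d; visual score vs untreated, 0 = no effect, 100 = complete control; dash = no result.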

[12] = system: small-flower umbrella sedge (Cyperus difformis); test: Test C flooded paddy test plant response; details: Flood, 250 g ai/ha; scale of 0 to 100 where 0 is no effect and 100 is complete control; 13 to 15 days
Summary of the method: as §3

[13] = system: barnyardgrass (Echinochloa crus-galli); test: Test C flooded paddy test plant response; details: Flood, 250 g ai/ha; scale of 0 to 100 where 0 is no effect and 100 is complete control; 13 to 15 days
Summary of the method: as §3

[14] = system: ducksalad (Heteranthera limosa); test: Test C flooded paddy test plant response; details: Flood, 250 g ai/ha; scale of 0 to 100 where 0 is no effect and 100 is complete control; 13 to 15 days
Summary of the method: as §3

[15] = 125 g ai/ha, postemergence, 0 to 100 scale, 0 no effect, 100 complete control
[16] = Postemergence, 500 g ai/ha, 0 to 100 scale (0 no effect, 100 complete control)
[17] = Preemergence, 125 g ai/ha, 0 to 100 scale (0 no effect, 100 complete control)
[18] = Preemergence, 500 g ai/ha, 0 to 100 scale where 0 is no effect and 100 is complete control
[19] = 31 g ai/ha, Preemergence, 0 to 100 scale where 0 is no effect and 100 is complete control
[20] = 31 g ai/ha, Postemergence, 0 to 100 scale, 0 no effect, 100 complete control

SMILES | Plant response rating, Wheat [1, 15] | Plant response rating, Ragweed [2, 15] | Ragweed plant response rating [2, 17] | Plant response rating, Pigweed [3, 15] | Pigweed plant response rating [3, 17] | Plant response rating, Ryegrass, Italian [4, 15] | Ryegrass, Italian plant response rating [4, 17] | Plant response rating, Barnyardgrass [5, 15] | Barnyardgrass plant response rating [5, 17] | Plant response rating, Kochia [6, 15] | Kochia plant response rating [6, 17] | Plant response rating, Foxtail, Giant [7, 15] | Foxtail, Giant plant response rating [7, 17] | Plant response rating, Corn [8, 15] | Plant response rating, Blackgrass [9, 15] | Plant response rating, Galium [10, 15] | Rice plant response rating [11] | Sedge, Umbrella plant response rating [12] | Barnyardgrass plant response rating [13] | Ducksalad plant response rating [14] | further results
FC(F)(F)c1ccnc(-c2c(Cl)cccc2Oc2ncc(Cl)cn2)c1 [Compound 159] | 20 | 0 | 0 | 90 | 40 | 0 | 0 | 0 | 0 | 20 | 0 | 0 | 20 | 20 | 0 | 70 | 0 | 0 | 0 | 0 | Plant response rating, Wheat [1, 16]: 20; Plant response rating, Ragweed [2, 16]: 0; Plant response rating, Ragweed [2, 18]: 0; Plant response rating, Pigweed [3, 16]: 100; Plant response rating, Pigweed [3, 18]: 100; Plant response rating, Ryegrass, Italian [4, 16]: 0; Plant response rating, Ryegrass, Italian [4, 18]: 0; Plant response rating, Barnyardgrass [5, 16]: 20; Plant response rating, Barnyardgrass [5, 18]: 60; Plant response rating, Kochia [6, 16]: 80; Plant response rating, Kochia [6, 18]: 30; Plant response rating, Foxtail, Giant [7, 16]: 70; Plant response rating, Foxtail, Giant [7, 18]: 90; Plant response rating, Corn [8, 16]: 30; Plant response rating, Blackgrass [9, 16]: 30; Plant response rating, Galium [10, 16]: 100
FC(F)(F)COCc1cc(-c2ccccc2Oc2ncc(Cl)cn2)on1 [Compound 128] | 0 | 10 | 0 | 60 | 40 | 0 | 0 | 10 | 0 | 50 | 0 | 10 | 10 | 10 | 20 | 30 | 0 | 0 | 0 | 0 | Plant response rating, Ragweed [2, 19]: 0; Plant response rating, Pigweed [3, 19]: 0; Plant response rating, Ryegrass, Italian [4, 19]: 0; Plant response rating, Barnyardgrass [5, 20]: 0; Plant response rating, Barnyardgrass [5, 19]: 0; Plant response rating, Kochia [6, 19]: 0; Plant response rating, Foxtail, Giant [7, 20]: 0; Plant response rating, Foxtail, Giant [7, 19]: 0; Plant response rating, Corn [8, 20]: 0; Plant response rating, Blackgrass [9, 20]: 0
